Laboratory results: PMC10364322, “Evaluation of chronic drug-induced electrophysiological and cytotoxic effects using human-induced pluripotent stem cell-derived cardiomyocytes (hiPSC-CMs)” (Frontiers in Pharmacology, 2023)
Like-named read-outs stand apart in the source and are kept apart here.

System: hiPSC-CMs (iCell-Cardiomyocytes^2)
Procedure, shortened: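 Spontaneous field potentials and impedance recorded by MEA at 37°C, 5% CO2 in hiPSC-CM monolayers (50 K/well, fibronectin-coated), 5-min baseline before compound; final DMSO 0.1%. Values are percent change from baseline, mean ± SD, compared with DMSO by Wilcoxon-Mann Whitney, interpreted against DMSO tolerance intervals.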

Compound: C[C@H](CS)C(=O)N1CCC[C@H]1C(=O)O [Captopril]
- BR (beating rate), % change from baseline (1 µM, 2h): 4±4%
- FPD (field-potential duration), % change from baseline (1 µM, 2h): 0±2.5%
- FPDc (field-potential duration corrected by beat-rate), % change from baseline (1 µM, 2h): 0.8±1.8%
- BR (beating rate), % change from baseline (1 µM, 24h): 1±5%
- FPD (field-potential duration), % change from baseline (1 µM, 24h): 5±5.9%
- FPDc (field-potential duration corrected by beat-rate), % change from baseline (1 µM, 24h): 5.1±4.4%
- BR (beating rate), % change from baseline (1 µM, 48h): -7±4%
- FPD (field-potential duration), % change from baseline (1 µM, 48h): 11.5±3.8%
- FPDc (field-potential duration corrected by beat-rate), % change from baseline (1 µM, 48h): 8.8±2.5%
- BR (beating rate), % change from baseline (1 µM, 72h): -10±1%
- FPD (field-potential duration), % change from baseline (1 µM, 72h): 16±2.7%
- FPDc (field-potential duration corrected by beat-rate), % change from baseline (1 µM, 72h): 11.9±2.1%
- BR (beating rate), % change from baseline (1 µM, 96h): -15±4%
- FPD (field-potential duration), % change from baseline (1 µM, 96h): 22±4.6%
- FPDc (field-potential duration corrected by beat-rate), % change from baseline (1 µM, 96h): 15.1±3%
- BR (beating rate), % change from baseline (3 µM, 72h): -9±1%
- FPD (field-potential duration), % change from baseline (3 µM, 72h): 12±0.8%
- FPDc (field-potential duration corrected by beat-rate), % change from baseline (3 µM, 72h): 8.6±0.6%
- BR (beating rate), % change from baseline (3 µM, 96h): -18±2%
- FPD (field-potential duration), % change from baseline (3 µM, 96h): 20.9±1.6%
- FPDc (field-potential duration corrected by beat-rate), % change from baseline (3 µM, 96h): 13.5±1.6%
- BR (beating rate), % change from baseline (3 µM, 2h): 2±2%
- FPD (field-potential duration), % change from baseline (3 µM, 2h): 0.3±1.9%
- FPDc (field-potential duration corrected by beat-rate), % change from baseline (3 µM, 2h): 1.1±1.6%
- BR (beating rate), % change from baseline (3 µM, 24h): 1±3%
- FPD (field-potential duration), % change from baseline (3 µM, 24h): 4.3±0.8%
- FPDc (field-potential duration corrected by beat-rate), % change from baseline (3 µM, 24h): 4.6±1.6%
- BR (beating rate), % change from baseline (3 µM, 48h): -7±2%
- FPD (field-potential duration), % change from baseline (3 µM, 48h): 10.9±2.8%
- FPDc (field-potential duration corrected by beat-rate), % change from baseline (3 µM, 48h): 8.2±1.8%
- BR (beating rate), % change from baseline (10 µM, 2h): 2±2%
- FPD (field-potential duration), % change from baseline (10 µM, 2h): 0.3±1.7%
- FPDc (field-potential duration corrected by beat-rate), % change from baseline (10 µM, 2h): 1±1.6%
- BR (beating rate), % change from baseline (10 µM, 24h): 1±3%
- FPD (field-potential duration), % change from baseline (10 µM, 24h): 5.3±3.7%
- FPDc (field-potential duration corrected by beat-rate), % change from baseline (10 µM, 24h): 5.7±2.8%
- BR (beating rate), % change from baseline (10 µM, 48h): -7±3%
- FPD (field-potential duration), % change from baseline (10 µM, 48h): 13.1±5.3%
- FPDc (field-potential duration corrected by beat-rate), % change from baseline (10 µM, 48h): 10.3±4.5%
- BR (beating rate), % change from baseline (10 µM, 72h): -10±1%
- FPD (field-potential duration), % change from baseline (10 µM, 72h): 14.8±5.3%
- FPDc (field-potential duration corrected by beat-rate), % change from baseline (10 µM, 72h): 11.2±4.9%
- BR (beating rate), % change from baseline (10 µM, 96h): -17±1%
- FPD (field-potential duration), % change from baseline (10 µM, 96h): 23.4±6.5%
- FPDc (field-potential duration corrected by beat-rate), % change from baseline (10 µM, 96h): 16±5.7%
- BR (beating rate), % change from baseline (30 µM, 2h): 2±3%
- FPD (field-potential duration), % change from baseline (30 µM, 2h): 3.4±1.3%
- FPDc (field-potential duration corrected by beat-rate), % change from baseline (30 µM, 2h): 4±1.3%
- BR (beating rate), % change from baseline (30 µM, 24h): 1±3%
- FPD (field-potential duration), % change from baseline (30 µM, 24h): 7.4±4.1%
- FPDc (field-potential duration corrected by beat-rate), % change from baseline (30 µM, 24h): 7.7±2.9%
- BR (beating rate), % change from baseline (30 µM, 48h): -7±1%
- FPD (field-potential duration), % change from baseline (30 µM, 48h): 13.9±3.1%
- FPDc (field-potential duration corrected by beat-rate), % change from baseline (30 µM, 48h): 11.4±2.7%
- BR (beating rate), % change from baseline (30 µM, 72h): -9±2%
- FPD (field-potential duration), % change from baseline (30 µM, 72h): 15.6±2%
- FPDc (field-potential duration corrected by beat-rate), % change from baseline (30 µM, 72h): 12.1±2.1%
- BR (beating rate), % change from baseline (30 µM, 96h): -16±2%
- FPD (field-potential duration), % change from baseline (30 µM, 96h): 23.3±2.4%
- FPDc (field-potential duration corrected by beat-rate), % change from baseline (30 µM, 96h): 16±2.1%
- cessation of beating, flat T-wave or arrhythmic-like events (all concentrations tested, up to 96 h): no cessation of beating, flat T-wave or arrhythmic-like events were detected
